Legend:
[1] = biological target: ALK (L1196M) (Homo sapiens, UniProt Q9UM73, L1196M); assay: Kinase inhibitory activity (33P-ATP filter-binding, scintillation counting); assay type: biochemical
Experimental: (§1) The measurement of the kinase inhibitory activity was performed in the following method.
(§2) 2. An evaluation compound (DMSO solution) and Mg/ATP were added to perform the reaction.
(§3) 3. After about 40 minutes at room temperature, 10 μL of 0.5% phosphoric acid was added to complete the reaction.
(§4) 4. The reaction solution was divided by 0.5% 10 μL and spotted on a P30 filtermat.
(§5) 5. […] The reaction solution was washed once with methanol and then dried and analyzed with scintillation counting to measure IC50 values.

[2] = test system: H2228 (EML4-ALK v3); assay: Cancer cell growth inhibitory effect (MTT assay); assay type: cell-based; details: Homo sapiens, NCI-H2228, 72 hours, read-out: H2228 cell growth inhibition IC50
Experimental: (§6) With respect to the compounds obtained in Examples, a growth inhibitory effect of ALK mutation cancer cells and EGFR mutation Ba/F3 cancer cell lines was measured. The anti-cancer efficacy activity measurement was performed by the following method using an ALK mutation cell line such as H3122 (EML4-ALK v1), H2228 (EML4-ALK v3), etc. and an EGFR mutation Ba/F3 stable cell line.
(§7) 2×10^5 cells were seeded on a 96-well plate. After 24 hours, each of the drugs was treated in a dose dependent manner, and incubated after 72 hours, a 15 μL MTT reagent reacted for 4 hours, and then 100 μL 10% SDS was added and incubated for 24 hours. […] MTT result analysis measured the IC50 values through prism software.

[3] = test system: H3122 (EML4-ALK v1); assay: Cancer cell growth inhibitory effect (MTT assay); assay type: cell-based; details: Homo sapiens, NCI-H3122, 72 hours, read-out: H3122 cell growth inhibition IC50
Experimental: as §6, §7

[4] = biological target: EGFR (del19/T790M/C797S) (Homo sapiens, UniProt P00533, C797S/DEL746-750/T790M); assay: Kinase inhibitory activity (33P-ATP filter-binding, scintillation counting); assay type: biochemical
Experimental: as §1, §2, §3, §4, §5

[5] = biological target: EGFR (del19/L858R/T790M) (Homo sapiens, UniProt P00533, T790M, form not given); assay: as above; assay type: biochemical
Experimental: as §1, §2, §3, §4, §5

[6] = biological target: T1, EGFR mutation Ba/F3 stable cell line DEL19/T790M/C797S (Homo sapiens, UniProt P00533, DEL746-750/T790M/C797S, cells depend on it); assay: Cancer cell growth inhibitory effect (MTT assay); assay type: cell-based, Murine; details: 72 hours, read-out: DEL19/T790M/C797S cell growth inhibition IC50
T1 construct: "del19, #32062; del19+T790M, #32072)
Experimental: as §6
Ba/F3 stable cell line construction: Murine lymphoid cells performed IL-3 dependent growth. […] A stable cell line was constructed using this principle even without puromycin selection. Briefly, each construction was infected on Ba/F3, and after 48 hours, IL-3 was removed by media exchange and cells were cultured. However, in the case of the wild type EGFR, puromycin selection was performed.
as §7

IC50 [1] [nM]	IC50 [2] [nM]	IC50 [3] [nM]	IC50 [4] [nM]	IC50 [5] [nM]	IC50 [6] [nM]	SMILES
< 50	< 100	50 to 100	–	–	–	COc1cc(N2CCOCC2)c(-c2cnn(C)c2)cc1Nc1ncc(Cl)c(Nc2ccccc2NS(C)(=O)=O)n1 [Example 2, N-(2-((5-chloro-2-((2-methoxy-5-(1-methyl-1H-pyrazol-4-yl)-4-morpholinophenyl)amino)pyrimidine-4-yl)amino)phenyl)methanesulfonamide]
< 50	< 100	50 to 100	< 50	< 50	< 100	COc1cc(N2CCSCC2)c(-c2cnn(C)c2)cc1Nc1ncc(Cl)c(Nc2ccccc2N(C)S(C)(=O)=O)n1 [Example 3]
< 50	< 100	50 to 100	< 50	< 50	< 100	COc1cc(N2CCSCC2)c(-c2cnn(C)c2)cc1Nc1ncc(Cl)c(Nc2ccccc2NS(C)(=O)=O)n1 [Example 7, N-(2-((5-chloro-2-((2-methoxy-5-(1-methyl-1H-pyrazol-4-yl)-4-thiomorpholinophenyl)amino)pyrimidine-4-yl)amino)phenyl)methanesulfonamide]
< 50	> 500	> 500	50 to 100	50 to 100	50 to 100	COc1cc(N2CCN(C)CC2)c(-c2cnn(C)c2)cc1Nc1ncc(Cl)c(Nc2ccccc2NS(C)(=O)=O)n1 [Example 8, N-(2-((5-chloro-2-((2-methoxy-5-(1-methyl-1H-pyrazol-4-yl)-4-(4-methylpiperazine-1-yl)phenyl)amino)pyrimidine-4-yl)amino)phenyl)methanesulfonamide]
< 50	50 to 100	50 to 100	50 to 100	< 50	50 to 100	COc1cc(N2CCN(C)CC2)c(-c2cnn(C)c2)cc1Nc1ncc(Cl)c(Nc2ccccc2N(C)S(C)(=O)=O)n1 [Example 4]
< 50	< 100	50 to 100	< 50	< 50	< 100	COc1cc(N2CC3(COC3)C2)c(-c2cnn(C)c2)cc1Nc1ncc(Cl)c(Nc2ccccc2N(C)S(C)(=O)=O)n1 [Example 5, N-(2-((5-chloro-2-((2-methoxy-5-(1-methyl-1H-pyrazol-4-yl)-4-(2-oxa-6-azaspiro[3.3]heptane-6-yl)phenyl)amino)pyrimidine-4-yl)amino)phenyl)-N-methylmethanesulfonamide]
< 50	50 to 100	50 to 100	50 to 100	< 50	50 to 100	COc1cc(N2CC3(CN(C)C3)C2)c(-c2cnn(C)c2)cc1Nc1ncc(Cl)c(Nc2ccccc2N(C)S(C)(=O)=O)n1 [Example 6, N-(2-((5-chloro-2-((2-methoxy-5-(1-methyl-1H-pyrazol-4-yl)-4-(6-methyl-2,6-diazaspiro[3.3]heptane-2-yl)phenyl)amino)pyrimidine-4-yl)amino)phenyl)-N-methylmethanesulfonamide]
50 to 100	> 500	> 500	–	–	–	C=CC(=O)Nc1cc(Nc2nccc(-c3cn(C)c4ccccc34)n2)c(OC)cc1N(C)CCN(C)C [Osimertinib, osimertinib, reference compound]
< 50	> 500	> 500	50 to 100	50 to 100	50 to 100	COc1cc(N2CC3(CN(C)C3)C2)c(-c2cnn(C)c2)cc1Nc1ncc(Cl)c(Nc2ccccc2NS(C)(=O)=O)n1 [Example 10, N-(2-((5-chloro-2-((2-methoxy-5-(1-methyl-1H-pyrazol-4-yl)-4-(6-methyl-2,6-diazaspiro[3.3]heptane-2-yl)phenyl)amino)pyrimidine-4-yl)amino)phenyl)methanesulfonamide]
< 50	< 100	50 to 100	< 50	< 50	< 100	COc1cc(N2CCOCC2)c(-c2cnn(C)c2)cc1Nc1ncc(Cl)c(Nc2ccccc2N(C)S(C)(=O)=O)n1 [Example 1, N-(2-((5-chloro-2-((2-methoxy-5-(1-methyl-1H-pyrazol-4-yl)-4-morpholinophenyl)amino)pyrimidine-4-yl)amino)phenyl)-N-methylmethanesulfonamide]
< 50	50 to 100	50 to 100	< 50	< 50	< 100	COc1cc(N2CC3(COC3)C2)c(-c2cnn(C)c2)cc1Nc1ncc(Cl)c(Nc2ccccc2NS(C)(=O)=O)n1 [Example 9, N-(2-((5-chloro-2-((2-methoxy-5-(1-methyl-1H-pyrazol-4-yl)-4-(2-oxa-6-azaspiro[3.3]heptane-6-yl)phenyl)amino)pyrimidine-4-yl)amino)phenyl)methanesulfonamide]
